Source: ChEMBL document CHEMBL4138122, “Azaphenothiazines - promising phenothiazine derivatives. An insight into nomenclature, synthesis, structure elucidation and biological properties” (Eur J Med Chem, 2017)
pIC50: −log10 of the molar value. Values after ≈ are worked out from the molar mass of the structure shown.

biological target: Intercellular adhesion molecule 1 (Homo sapiens, UniProt P05362); assay: Inhibition of ICAM1 (unknown origin); settings: not given
Sequence (P05362 whole entry): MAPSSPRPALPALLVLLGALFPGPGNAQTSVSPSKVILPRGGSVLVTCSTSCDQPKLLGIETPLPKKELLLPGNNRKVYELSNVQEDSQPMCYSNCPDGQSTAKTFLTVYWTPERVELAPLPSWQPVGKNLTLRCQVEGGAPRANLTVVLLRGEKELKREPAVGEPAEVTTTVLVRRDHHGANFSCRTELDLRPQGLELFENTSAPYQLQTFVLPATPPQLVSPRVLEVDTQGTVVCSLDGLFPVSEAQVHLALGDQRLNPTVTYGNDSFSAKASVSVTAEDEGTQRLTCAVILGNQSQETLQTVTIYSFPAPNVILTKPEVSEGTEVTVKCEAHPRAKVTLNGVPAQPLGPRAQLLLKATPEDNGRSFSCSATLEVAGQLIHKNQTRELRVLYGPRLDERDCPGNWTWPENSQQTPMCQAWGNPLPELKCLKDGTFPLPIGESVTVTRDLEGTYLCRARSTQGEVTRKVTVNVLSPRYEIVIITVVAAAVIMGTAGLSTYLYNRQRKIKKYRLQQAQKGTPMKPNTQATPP

Structure (SMILES) | pIC50
CS(=O)(=O)NCCC1CCN(Cc2ccc3c(c2)Nc2nccnc2S3)CC1 | 5.85 to 6.57
O=C(O)C1CC2(CCN(Cc3ccc4c(c3)Nc3nccnc3S4)CC2)C1 | 6.00 to 6.38
O=C(O)CC1C2CCCC1CN(Cc1ccc3c(c1)Nc1nccnc1S3)C2 (stereo in doubt; 64d) | 5.64
CS(=O)(=O)NC1CCN(Cc2ccc3c(c2)Nc2nccnc2S3)CC1 | 5.85 to 6.57

tested on: Staphylococcus aureus; assay: Antimicrobial activity against Staphylococcus aureus assessed as reduction in bacterial growth at 100 ppm relative to control; assay type: functional; settings: not given

Structure (SMILES) | inhibition at 100 ppm
Clc1nc2c(nc1Cl)N(CCCN1CCCC1)c1ccccc1S2 | 100%
CN(C)CCCN1c2ccccc2Sc2nc(Cl)c(Cl)nc21 | 100%
Clc1nc2c(nc1Cl)N(CCC1CCCN1)c1ccccc1S2 (stereo not given) | 100%

tested on: not listed separately; assay: Inhibition of lipoxygenase in rat peritoneal cavity resident cells; settings: not given

Structure (SMILES) | pIC50
Cn1c(=O)[nH]c2c(c1=O)Nc1ccccc1S2 | 5.72
O=c1[nH]c2c(c(=O)[nH]1)Nc1ccccc1S2 [PYRIMIDOBENZOTHIAZINE] | 5.28

tested on: Mus musculus; assay: Analgesic activity in mouse assessed as reduction in phenylquinone-induced number of writhes at 20 mg/kg, ip; assay type: functional; parameters: scale not given: the % may be the effect or the level left; settings: not given

Structure (SMILES) | Activity
CSc1nnc2c3c(cnn12)Sc1ccccc1N3 | 54 - 65%
CN(C)CCSc1nnc2c3c(cnn12)Sc1ccccc1N3 | 54 - 65%
CN1CCN(Cc2nnc3c4c(cnn23)Sc2ccccc2N4)CC1 | 54 - 65%
CCN(CC)CCSc1nnc2c3c(cnn12)Sc1ccccc1N3 | 54 - 65%

tested on: Aureobasidium pullulans; assay: Antimicrobial activity against Pullularia pullulans assessed as reduction in microbial growth at 100 ppm relative to control; assay type: functional; settings: not given

Structure (SMILES) | inhibition at 100 ppm
Clc1nc2c(nc1Cl)N(CCCN1CCCC1)c1ccccc1S2 | 100%
CN(C)CCCN1c2ccccc2Sc2nc(Cl)c(Cl)nc21 | 100%
Clc1nc2c(nc1Cl)N(CCC1CCCN1)c1ccccc1S2 (stereo not given) | 100%

tested on: Mus musculus; assay: Neuropharmacological activity in iv dosed Charles River Swiss mouse assessed as minimum dose at which reactive signs were observed in half of mouse tested; assay type: functional; settings: not given

Structure (SMILES) | MED50
CSc1ccc2c(c1)N(C(=O)SCCN(C(C)C)C(C)C)c1ncccc1S2 | 0.058 to 1.8 mg/kg
CC(C)N(CCSC(=O)N1c2cc(C(F)(F)F)ccc2Sc2cccnc21)C(C)C | 0.058 to 1.8 mg/kg
CC(C)N(CCSC(=O)N1c2cc(F)ccc2Sc2cccnc21)C(C)C | 0.058 to 1.8 mg/kg
CC(C)N(CCSC(=O)N1c2ccccc2Sc2cc(Cl)cnc21)C(C)C | 0.058 to 1.8 mg/kg
CC(C)N(CCSC(=O)N1c2ccccc2Sc2cccnc21)C(C)C | 0.058 to 1.8 mg/kg

tested on: HFF-1; assay: Cytotoxicity against human HFF1 cells incubated for 72 hrs by WST1 dye based assay; assay type: cell-based; settings: HFF-1, 72 h

Structure (SMILES) | IC50
O=[N+]([O-])c1cnccc1N1c2cccnc2Sc2cccnc21 | ≥ 50 µg/mL

tested on: Candida albicans; assay: Antimicrobial activity against Candida albicans assessed as reduction in […] growth at 100 ppm relative to control; assay type: functional; settings: not given

Structure (SMILES) | inhibition at 100 ppm
Clc1nc2c(nc1Cl)N(CCCN1CCCC1)c1ccccc1S2 | 100%
CN(C)CCCN1c2ccccc2Sc2nc(Cl)c(Cl)nc21 | 100%
Clc1nc2c(nc1Cl)N(CCC1CCCN1)c1ccccc1S2 (stereo not given) | 100%

tested on: Mus musculus; assay: Anti-inflammatory activity in mouse IL-1-induced paw inflammation model assessed as inhibition of neutrophil infiltration at 10 mg/kg, po; assay type: functional; settings: not given

Structure (SMILES) | inhibition (INH)
O=C(O)CC1C2CCCC1CN(Cc1ccc3c(c1)Nc1nccnc1S3)C2 (stereo in doubt; 64d) | 80.6%

same assay, conditions: Mus musculus, po

Structure (SMILES) | inhibition in vivo at 10 mg/kg
O=C(O)CC1C2CCC1CN(Cc1ccc3c(c1)Nc1nccnc1S3)C2 (stereo not given) | 83.2%
O=C(O)C1CC2(CCN(Cc3ccc4c(c3)Nc3nccnc3S4)CC2)C1 | 82.8%

tested on: PBMC; assay: Cytotoxicity in human PBMCs assessed as reduction in cel viability at 50 ug/ml; assay type: cell-based; settings: not given

Structure (SMILES) | Activity
CCN(CC)CCN1c2cnccc2Sc2cccnc21 | <= 22%
c1cnc2c(c1)Sc1ccncc1N2CCN1CCOCC1 | <= 22%
c1ccc(CN2c3cnccc3Sc3cccnc32)cc1 | <= 22%
CC(CN(C)C)CN1c2cnccc2Sc2cccnc21 (stereo not given) | <= 22%
C=CCN1c2cnccc2Sc2cccnc21 | <= 22%
CN(C)CCCN1c2cnccc2Sc2cccnc21 | <= 22%
C#CCN1c2cnccc2Sc2cccnc21 | <= 22%
CC(=O)NCCCN1c2cnccc2Sc2cccnc21 | <= 22%
c1cnc2c(c1)Sc1ccncc1N2CCN1CCCC1 | <= 22%
c1cnc2c(c1)Sc1ccncc1N2 | <= 22%

tested on: UO-31; assay: Growth inhibition of human UO31 cells at 10 uM; assay type: functional; settings: read-out: GI

Structure (SMILES) | inhibition of growth at 10 µM
c1ccc(CN2c3nc4ccccc4cc3Sc3cc4ccccc4nc32)cc1 | 57 to 73%
O=[N+]([O-])c1ccc(N2c3nc4ccccc4cc3Sc3cc4ccccc4nc32)cc1 | 57 to 73%

tested on: Trichophyton mentagrophytes; assay: Antimicrobial activity against Trichophyton mentagrophytes assessed as reduction in microbial growth at 100 ppm relative to control; assay type: functional; settings: not given

Structure (SMILES) | inhibition at 100 ppm
Clc1nc2c(nc1Cl)N(CCCN1CCCC1)c1ccccc1S2 | 100%
CN(C)CCCN1c2ccccc2Sc2nc(Cl)c(Cl)nc21 | 100%
Clc1nc2c(nc1Cl)N(CCC1CCCN1)c1ccccc1S2 (stereo not given) | 100%

tested on: Bacillus subtilis; assay: Antibacterial activity against Bacillus subtilis; assay type: functional; settings: Bacillus subtilis

Structure (SMILES) | MIC
O=[N+]([O-])c1ccc2c(c1)N=c1c(c3c(c4ccccc14)=Nc1ccccc1S3)O2 | 45.7 µg/mL (≈ 115 µM)

tested on: PBMC; assay: Inhibition of PHA-induced cell proliferation of human PBMC at 50 ug/ml incubated for 4 days by MTT method; assay type: functional; settings: 96 h

Structure (SMILES) | inhibition at 50 µg/mL
CCN(CC)CCN1c2cnccc2Sc2cccnc21 | 60%
c1cnc2c(c1)Sc1ccncc1N2CCN1CCOCC1 | 60%
CC(CN(C)C)CN1c2cnccc2Sc2cccnc21 (stereo not given) | 60%
CN(C)CCCN1c2cnccc2Sc2cccnc21 | > 70%
CC(=O)NCCCN1c2cnccc2Sc2cccnc21 | 60%
c1cnc2c(c1)Sc1ccncc1N2 | > 70%

tested on: MCF7; assay: Cytotoxicity against human MCF7 cells incubated for 72 hrs by WST1 dye based assay; assay type: functional, cell-based; settings: MCF7, 72 h

Structure (SMILES) | IC50
C#CCN1c2cccnc2Sc2cccnc21 | 3.9 µg/mL (≈ 16.3 µM)
O=[N+]([O-])c1cnccc1N1c2cccnc2Sc2cccnc21 | 4.6 µg/mL (≈ 14.2 µM)
CN1CCN(CC#CCN2c3cccnc3Sc3cccnc32)CC1 | 7.5 µg/mL (≈ 21.3 µM)

tested on: Mus musculus; assay: Anti-inflammatory activity in IL1-induced paw inflammation Balb/c mouse model assessed as inhibition of neutrophil migration at 10 mg/kg, po, pretreated for 30 mins followed by IL1 challenge measured after 2 hrs by spectrophotometric method; assay type: functional; settings: not given

Structure (SMILES) | inhibition in vivo at 10 mg/kg
CS(=O)(=O)NCCC1CCN(Cc2ccc3c(c2)Nc2nccnc2S3)CC1 | 83.4 to 89.7%
CS(=O)(=O)NC1CCN(Cc2ccc3c(c2)Nc2nccnc2S3)CC1 | 83.4 to 89.7%

tested on: Aspergillus terreus; assay: Antimicrobial activity against Aspergillus terreus assessed as reduction in microbial growth at 100 ppm relative to control; assay type: functional; settings: not given

Structure (SMILES) | inhibition at 100 ppm
Clc1nc2c(nc1Cl)N(CCCN1CCCC1)c1ccccc1S2 | 100%
CN(C)CCCN1c2ccccc2Sc2nc(Cl)c(Cl)nc21 | 100%
Clc1nc2c(nc1Cl)N(CCC1CCCN1)c1ccccc1S2 (stereo not given) | 100%

tested on: Candida albicans; assay: microbe, parasite or virus in culture; settings: not given

Structure (SMILES) | MIC
O=[N+]([O-])c1ccc2c(c1)N=c1c(c3c(c4ccccc14)=Nc1ccccc1S3)O2 | 100 µg/mL (≈ 252 µM)

tested on: PBMC; assay: Inhibition of LPS-induced TNFalpha profduction in human PBMC at 5 ug/ml; assay type: functional; settings: not given

Structure (SMILES) | inhibition at 5 µg/mL
c1ccc(CN2c3cnccc3Sc3cccnc32)cc1 | > 85%
CC(CN(C)C)CN1c2cnccc2Sc2cccnc21 (stereo not given) | > 85%
C=CCN1c2cnccc2Sc2cccnc21 | > 85%
CN(C)CCCN1c2cnccc2Sc2cccnc21 | > 85%
C#CCN1c2cnccc2Sc2cccnc21 | > 85%
c1cnc2c(c1)Sc1ccncc1N2CCN1CCCC1 | > 85%
